Measurements as given in paper PMC10784249 (Natural Products and Bioprospecting, 2024).

Experiments:
SH-SY5Y cells = assay: Cell viability of SH-SY5Y cells by MTT (toxicity check); conditions: undifferentiated SH-SY5Y, 70 µM of OA, 24 h
[1] = PAMPA-BBB parallel artificial membrane permeability assay; assay type: in vitro ADME, porcine; conditions: pig, pH 7.4, PBS:EtOH (70:30) as solvent, mean ± SD of 2 independent experiments, 2 h 30 min at 25 °C, read-out: Pe
Description: Filter PDVF membrane units (diameter 30 mm, pore size 0.45 μm) from Symta were used to filter the samples. A 96-well plate UV reader (Thermoscientific, Multiskan spectrum) was used for the UV measurements. […] These solutions were filtered. […] Then the donor plate was carefully put on the acceptor plate to form a “sandwich”, which was left undisturbed for 2 h and 30 min at 25 °C. […] During this time the compounds diffused from the donor plate through the brain lipid membrane into the acceptor plate. After incubation, the donor plate was removed. UV plate reader determined the concentration of compounds and commercial drugs in the acceptor and the donor wells. […] 10 quality control compounds (previously mentioned) of known BBB permeability were included in each experiment to validate the analysis set.

| Papp at […] [1] [×10⁻⁶ cm/s] | Structure (SMILES) | decrease of cell viability (SH-SY5Y cells) |
| --- | --- | --- |
| – | C=C1[C@@H](O)[C@@H]2O[C@]3(CC[C@H](/C=C/[C@@H](C)[C@@H]4CC(C)=C[C@@]5(O[C@H](C[C@@](C)(O)C(=O)O)CC[C@H]5O)O4)O3)CC[C@H]2O[C@@H]1[C@@H](O)C[C@H](C)[C@H]1O[C@@]2(CCCCO2)CC[C@H]1C [OA, okadaic acid] | about 43% |
| 0.6 ± 0.8 | CN1C(C(=O)Nc2ccccn2)=C(O)c2ccccc2S1(=O)=O [Piroxicam] | – |
| 12 ± 0.9 | CN(C)CCCN1c2ccccc2Sc2ccccc21 [Promazine] | – |
